The source made the active and inactive calls. The rule behind the calls is not given here.
Columns and labels:
[1] = target: Beta-2 adrenergic receptor (Cavia porcellus) (UniProt Q8K4Z4); assay: (§1) Agonist activity at adrenergic beta2 receptor in Hartley guinea pig tracheal ring assessed as bronchorelaxation activity against carbachol-induced contraction; format: functional, tissue-based; details: Trachea
[2] = target: T1, Beta-2 adrenergic receptor (Cavia porcellus, UniProt Q8K4Z4); assay: as §1; format: functional, tissue-based, Trachea
[3] = target: Beta-2 adrenergic receptor (Cavia porcellus) (UniProt Q8K4Z4); assay: (§2) Agonist activity at adrenergic beta2 receptor in Hartley guinea pig tracheal ring assessed as bronchorelaxation activity against histamine-induced contraction; format: functional, tissue-based; details: Trachea
[4] = target: T1, Beta-2 adrenergic receptor; assay: as §2; format: functional, tissue-based, Trachea
[5] = target: Beta-2 adrenergic receptor (Cavia porcellus) (UniProt Q8K4Z4); assay: Agonist activity at adrenergic beta2 receptor in Hartley guinea pig tracheal ring assessed as maximum bronchorelaxation activity against carbachol-induced contraction at 1 uM; format: functional, tissue-based; details: Trachea
[6] = target: Beta-2 adrenergic receptor (Cavia porcellus) (UniProt Q8K4Z4); assay: Agonist activity at adrenergic beta2 receptor in Hartley guinea pig tracheal ring assessed as maximum bronchorelaxation activity against histamine-induced contraction at 1 uM; format: functional, tissue-based; details: Trachea
[7] = target: Beta-2 adrenergic receptor (Cavia porcellus) (UniProt Q8K4Z4); assay: Agonist activity at adrenergic beta2 receptor in Hartley guinea pig tracheal ring assessed as bronchorelaxation activity against histamine-induced contraction in presence of propranolol; format: functional, tissue-based; details: Trachea
[8] = target: Beta-2 adrenergic receptor (Cavia porcellus) (UniProt Q8K4Z4); assay: Agonist activity at adrenergic beta2 receptor in Hartley guinea pig tracheal ring assessed as bronchorelaxation activity against histamine-induced contraction in presence of ICI-118551; format: functional, tissue-based; details: Trachea
[9] = target: T1, Beta-2 adrenergic receptor; assay: Binding affinity to adrenergic beta2 receptor in Hartley guinea pig tracheal ring
[10] = target: Beta-2 adrenergic receptor (Homo sapiens, UniProt P07550)
Beta-2 adrenergic receptor (Homo sapiens, UniProt P07550), sequence (P07550 whole entry): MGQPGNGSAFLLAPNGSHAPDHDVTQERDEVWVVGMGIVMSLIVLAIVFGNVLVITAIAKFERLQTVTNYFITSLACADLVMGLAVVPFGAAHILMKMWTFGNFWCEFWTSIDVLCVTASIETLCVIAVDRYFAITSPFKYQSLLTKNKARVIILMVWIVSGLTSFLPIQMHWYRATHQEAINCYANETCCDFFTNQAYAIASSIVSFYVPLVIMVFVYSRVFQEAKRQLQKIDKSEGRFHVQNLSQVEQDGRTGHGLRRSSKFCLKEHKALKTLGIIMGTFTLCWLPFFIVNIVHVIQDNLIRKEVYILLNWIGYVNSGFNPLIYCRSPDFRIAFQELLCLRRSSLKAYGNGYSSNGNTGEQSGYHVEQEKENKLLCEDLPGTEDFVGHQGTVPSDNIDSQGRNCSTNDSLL
Description: Binding affinity to human adrenergic beta2 receptor

T1 sequence (Q8K4Z4 whole entry): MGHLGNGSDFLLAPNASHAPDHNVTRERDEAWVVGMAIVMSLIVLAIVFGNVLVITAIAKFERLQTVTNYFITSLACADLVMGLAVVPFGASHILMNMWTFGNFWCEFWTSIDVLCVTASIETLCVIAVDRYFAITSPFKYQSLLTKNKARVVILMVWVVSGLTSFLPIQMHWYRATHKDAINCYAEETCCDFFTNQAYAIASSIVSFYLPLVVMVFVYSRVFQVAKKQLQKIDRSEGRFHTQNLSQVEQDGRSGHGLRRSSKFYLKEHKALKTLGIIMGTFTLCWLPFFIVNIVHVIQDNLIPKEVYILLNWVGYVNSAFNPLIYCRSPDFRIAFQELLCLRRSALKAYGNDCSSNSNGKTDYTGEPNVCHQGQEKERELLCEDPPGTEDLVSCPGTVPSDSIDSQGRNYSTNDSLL
Beta-2 adrenergic receptor (Cavia porcellus), sequence (Q8K4Z4 whole entry, looked up): as the sequence (Q8K4Z4 whole entry) above

| Activity [1] | EC50 [2] [nM] | Activity [3] | EC50 [4] [nM] | Activity [5] | Activity [6] | Activity [7] | Activity [8] | Kd [9] [nM] | Kd [10] [nM] | Structure (SMILES) |
| --- | --- | --- | --- | --- | --- | --- | --- | --- | --- | --- |
| Dose-dependent effect | 2.1 | Dose-dependent effect | 0.072 | Active | Active | inactive | inactive | 110 |  | CC(C)(C)NC[C@@H](O)c1ccc(OB(O)O)c(CO)c1 |
|  |  |  |  |  |  |  |  |  | 4810 | CC(C)NCC(O)c1cc(O)cc(O)c1 (centres undefined) [METAPROTERENOL] |
| Dose-dependent effect |  | Dose-dependent effect |  |  |  | inactive | inactive |  |  | CC(C)(C)NCC(O)c1ccc(O)c(CO)c1 (centres undefined) |
